# Like-named read-outs stand apart in the source and are kept apart here.
# What was measured:
# S. aureus = experiment: In vitro MIC testing, antibacterial spectrum of activity; format: cell-based, Staphylococcus aureus; details: for MIC50 / MIC90 / MIC: Staphylococcus aureus; for MIC50: read-out: MIC50; for MIC90: read-out: MIC90
# [1] = test system: methicillin-sensitive S. aureus (MSSA); experiment: In vitro MIC against isolates of MSSA; format: cell-based, Staphylococcus aureus
# [2] = test system: bacterial protein synthesis (synthesis of reporter protein); experiment: In vitro cell-free bacterial transcription and translation assay; format: biochemical; details: cell-free bacterial transcription and translation assay (Promega); read-out: IC50, inhibition of the synthesis of reporter protein
# P. acnes = experiment: In vitro MIC testing, antibacterial spectrum of activity; format: cell-based, Propionibacterium acnes; details: for MIC50: read-out: MIC50; for MIC90: read-out: MIC90
# Chlamydia pneumoniae = experiment: Susceptibility testing (MIC, MBC) of 10 isolates of C. pneumoniae in HEp-2 cells; format: cell-based
# P. mirabilis = experiment: In vitro MIC testing, antibacterial spectrum of activity; format: cell-based; details: P. mirabilis (30 isolates)
# P. aeruginosa = experiment: as above; format: cell-based; details: Pseudomonas aeruginosa; P. aeruginosa (11 isolates)
# Bacteroides ovatus = experiment: In vitro MIC testing against anaerobic bacteria; format: cell-based
# Propionibacterium acnes = experiment: In vitro MIC testing against anaerobic bacteria; format: cell-based; details: Cutibacterium acnes
# Bacteroides fragilis = experiment: In vitro MIC testing against anaerobic bacteria; format: cell-based
# [3] = test system: Peptostreptococcus anaerobius; experiment: In vitro MIC testing against anaerobic bacteria; format: cell-based
# E. cloacae = experiment: In vitro MIC testing, antibacterial spectrum of activity; format: cell-based; details: Enterobacter cloacae; E. cloacae (30 isolates)
# Staphylococcus aureus = experiment: Inhibition of macromolecular synthesis in Staphylococcus aureus (whole-cell assay); format: cell-based; details: S. aureus, at 8-fold the MIC
# [4] = test system: Streptococcus constellatus; experiment: In vitro MIC testing against anaerobic bacteria; format: cell-based
# [5] = test system: hospital-associated methicillin-resistant S. aureus (MRSA-HA); experiment: In vitro MIC against isolates of MRSA-HA; format: cell-based, Staphylococcus aureus; details: MRSA-HA (33 isolates)
# Prevotella spp. = experiment: In vitro MIC testing against anaerobic bacteria; format: cell-based
# Chlamydia trachomatis [6] = experiment: In vitro susceptibility testing of Chlamydia trachomatis in HEp-2 cells (first study); format: cell-based; details: C. trachomatis strains
# Salmonella Spp. = experiment: In vitro MIC testing, antibacterial spectrum of activity; format: cell-based; details: Salmonella
# Chlamydia trachomatis [7] = experiment: Susceptibility testing (MIC, MBC) of 10 isolates of C. trachomatis in HEp-2 cells; format: cell-based
# Helicobacter pylori = experiment: In vitro MIC against multiple isolates of H. pylori; format: cell-based; details: for MIC: read-out: MIC
# [8] = test system: community-acquired methicillin-resistant S. aureus (MRSA-CA); experiment: In vitro MIC against isolates of MRSA-CA; format: cell-based, Staphylococcus aureus
# [9] = MRSA, S. aureus [MRSA] (31 isolates)
# [10] = MSSA, S. aureus [MSSA] (32 isolates)
# [11] = Cutibacterium acnes, P. acnes [clinical isolates] (55 isolates)
# [12] = Cutibacterium acnes, P. acnes [tetS] (13 isolates)
# [13] = Staphylococcus aureus, MRSA-CA (33 isolates)
structure (smiles),measurement,setting,value
"CON(C)Cc1ccc(O)c2c1C[C@H]1C[C@H]3[C@H](N(C)C)C(O)=C(C(N)=O)C(=O)[C@@]3(O)C(O)=C1C2=O [The Active, (4S,4aS,5aR,12aS)-4-dimethylamino-3,10,12,12a-tetrahydroxy-7-[(methoxy(methyl)amino)-methyl]-1,11-dioxo-1,4,4a,5,5a,6,11,12a-octahydro-naphthacene-2-carboxylic acid amide]",MIC Range,S. aureus; S. aureus [MRSA] (31 isolates),0.25 to 4 µg/mL
same,MIC Range,S. aureus; S. aureus [MSSA] (32 isolates),0.25 to 16 µg/mL
same,MIC Range,S. aureus; S. aureus [tetR] (10 isolates),0.125 to 32 µg/mL
same,MIC Range,S. aureus; S. aureus [tetS] (20 isolates),≦0.06-0.25 μg/mL
same,MIC50,S. aureus; [9],0.25 µg/mL
same,MIC90,S. aureus; [9],0.5 µg/mL
same,MIC50,S. aureus; [10],0.5 µg/mL
same,MIC90,S. aureus; [10],0.5 µg/mL
same,MIC50,S. aureus; S. aureus [tetR] (10 isolates),4 µg/mL
same,MIC90,S. aureus; S. aureus [tetR] (10 isolates),16 µg/mL
same,MIC50,S. aureus; S. aureus [tetS] (20 isolates),0.125 µg/mL
same,MIC90,S. aureus; S. aureus [tetS] (20 isolates),0.25 µg/mL
same,MIC,"S. aureus; S. aureus strain PBS # 1309, tetK",0.5 µg/mL
same,MIC,"S. aureus; S. aureus strain PBS # 1310, tetM",8 µg/mL
same,MIC,"S. aureus; S. aureus strain PBS # 1739, tet38",4 µg/mL
same,MIC90,[1]; MSSA (34 isolates),1.0 µg/mL
same,MIC Range,[1]; MSSA (34 isolates),0.25 to 16 µg/mL
same,MIC50,"[1]; Staphylococcus aureus, MSSA (34 isolates)",0.25 µg/mL
same,MIC90,"[1]; Staphylococcus aureus, MSSA (34 isolates), read-out: MIC90",1 µg/mL
same,MIC,"[1]; Staphylococcus aureus, single strain of doxycycline-resistant MSSA",16 µg/mL
same,IC50,[2],8.3 ± 0.18 µM
same,MIC,P. acnes; Cutibacterium acnes,> 8 µg/mL
same,MIC50,P. acnes; [11],0.5 µg/mL
same,MIC90,P. acnes; [11],4 µg/mL
same,MIC50,P. acnes; [12],0.5 µg/mL
same,MIC90,P. acnes; [12],2 µg/mL
same,MIC Range,P. acnes; P. acnes [clinical isolates] (55 isolates),0.5 to 16 µg/mL
same,MIC Range,P. acnes; P. acnes [tetS] (2 isolates),0.25 to 1 µg/mL
same,MIC Range,P. acnes; P. acnes [tetS] (13 isolates),0.25 to 4 µg/mL
same,MIC 90%,Chlamydia pneumoniae; 72 h,0.5 µg/mL
same,MIC Range,Chlamydia pneumoniae; 72 h,0.125 to 0.5 µg/mL
same,MIC50,"Chlamydia pneumoniae; Chlamydia pneumoniae, 72 h",0.25 µg/mL
same,MIC90,"Chlamydia pneumoniae; Chlamydia pneumoniae, 72 h",0.5 µg/mL
same,MBC,"Chlamydia pneumoniae; Chlamydia pneumoniae, after passage, read-out: MBC 90%",0.25 µg/mL
same,MBC 90%,Chlamydia pneumoniae; after passage,0.25 µg/mL
same,MBC Range,Chlamydia pneumoniae; after passage,0.125 to 0.5 µg/mL
same,MIC Range,P. mirabilis,>64 µg/mL
same,MIC50,P. mirabilis; Proteus mirabilis,> 64 µg/mL
same,MIC90,P. mirabilis; Proteus mirabilis,> 64 µg/mL
same,MIC50,P. aeruginosa,> 64 µg/mL
same,MIC90,P. aeruginosa,> 64 µg/mL
same,MIC,Bacteroides ovatus,0.25 µg/mL
same,MIC,"Bacteroides ovatus; Bacteroides ovatus 3503, read-out: MIC",8 µg/mL
same,MIC,Propionibacterium acnes,0.25 µg/mL
same,MIC,"Propionibacterium acnes; ATCC11829, Propionibacterium acnes 1286, ATCC 11829, read-out: MIC",1 µg/mL
same,MIC,"Propionibacterium acnes; P. acnes, summary of Table 1, read-out: minimum inhibitory concentration (MIC), relatively potent activity",≤ 4 µg/mL
same,MIC,Bacteroides fragilis; Bacteroides fragilis 3374,0.12 µg/mL
same,MIC,Bacteroides fragilis; Bacteroides fragilis 3479,16 µg/mL
same,MIC,[3]; Peptostreptococcus anaerobius 3526,2 µg/mL
same,MIC,[3]; Peptostreptococcus anaerobius 3531,4 µg/mL
same,MIC50,E. cloacae,32 µg/mL
same,MIC90,E. cloacae,> 64 µg/mL
same,"inhibition of the synthesis of cell wall, DNA, RNA and lipid components",Staphylococcus aureus,less than 20%
same,maximum inhibition of incorporation of [3H]-leucine into proteins,Staphylococcus aureus,80%
same,MIC,"[4]; ATCC27823, Streptococcus constellatus 1202, ATCC 27823, read-out: MIC",32 µg/mL
same,MIC,"[4]; Streptococcus constellatus, S. constellatus, summary of Table 1, read-out: MIC, high MIC values",> 16 µg/mL
same,MIC Range,[5],0.25 to 0.5 µg/mL
same,MIC50,[5]; Staphylococcus aureus,0.25 µg/mL
same,MIC90,[5]; Staphylococcus aureus,0.5 µg/mL
same,MIC,Prevotella spp.; Prevotella spp. 3564,4 µg/mL
same,MIC,Prevotella spp.; Prevotella spp. 3568,2 µg/mL
same,MIC Range,Chlamydia trachomatis [6],0.06 to 0.125 µg/mL
same,MIC90,"Chlamydia trachomatis [6]; Chlamydia trachomatis, read-out: MIC at which 90% of the strains were inhibited (MIC90)",0.125 µg/mL
same,MBC,"Chlamydia trachomatis [6]; Chlamydia trachomatis, read-out: minimum bactericidal concentration at which 90% of the strains were inhibited (MBC90)",0.125 µg/mL
same,MIC90,Salmonella Spp.,> 64 µg/mL
same,MIC 90%,Chlamydia trachomatis [7]; 72 h,0.125 µg/mL
same,MIC Range,Chlamydia trachomatis [7]; 72 h,0.03 to 0.125 µg/mL
same,MIC50,"Chlamydia trachomatis [7]; Chlamydia trachomatis, 72 h",0.06 µg/mL
same,MIC90,"Chlamydia trachomatis [7]; Chlamydia trachomatis, 72 h",0.125 µg/mL
same,MBC,"Chlamydia trachomatis [7]; Chlamydia trachomatis, after passage, read-out: MBC 90%",0.125 µg/mL
same,MBC 90%,Chlamydia trachomatis [7]; after passage,0.125 µg/mL
same,MBC Range,Chlamydia trachomatis [7]; after passage,0.03 to 0.125 µg/mL
same,MIC Range,Helicobacter pylori; H. pylori clinical isolate summary,1 to 8 µg/mL
same,concentration inhibiting 12 out of 13 strains,"Helicobacter pylori; H. pylori, 12 out of 13 strains",1 to 2 µg/mL
same,concentration inhibiting all test strains,"Helicobacter pylori; H. pylori, all 13 test strains",≤ 8 µg/mL
same,MIC,"Helicobacter pylori; Helicobacter pylori, ATCC43504, H. pylori reference strain, culture No. 3718, ATCC 43504",2 µg/mL
same,MIC,"Helicobacter pylori; Helicobacter pylori, ATCC700824, H. pylori reference strain, culture No. 3719, ATCC 700824",2 µg/mL
same,MIC,"Helicobacter pylori; Helicobacter pylori, ATCCBAA945, H. pylori reference strain, culture No. 3720, ATCC BAA-945",1 µg/mL
same,MIC,"Helicobacter pylori; Helicobacter pylori, H. pylori clinical isolate, culture No. 4368",2 µg/mL
same,MIC,"Helicobacter pylori; Helicobacter pylori, H. pylori clinical isolate, culture No. 4369",8 µg/mL
same,MIC,"Helicobacter pylori; Helicobacter pylori, H. pylori clinical isolate, culture No. 4370",2 µg/mL
same,MIC,"Helicobacter pylori; Helicobacter pylori, H. pylori clinical isolate, culture No. 4371",2 µg/mL
same,MIC,"Helicobacter pylori; Helicobacter pylori, H. pylori clinical isolate, culture No. 4372",1 µg/mL
same,MIC,"Helicobacter pylori; Helicobacter pylori, H. pylori clinical isolate, culture No. 4374",2 µg/mL
same,MIC,"Helicobacter pylori; Helicobacter pylori, H. pylori clinical isolate, culture No. 4375",2 µg/mL
same,MIC,"Helicobacter pylori; Helicobacter pylori, H. pylori clinical isolate, culture No. 4377",1 µg/mL
same,MIC,"Helicobacter pylori; Helicobacter pylori, H. pylori clinical isolate, culture No. 4503",2 µg/mL
same,MIC,"Helicobacter pylori; Helicobacter pylori, H. pylori clinical isolate, culture No. 4504",1 µg/mL
same,MIC90,"Helicobacter pylori; Helicobacter pylori, H. pylori, MIC for 90% of clinical test isolates, read-out: MIC90",2 µg/mL
same,MIC50,"Helicobacter pylori; Helicobacter pylori, read-out: MIC50",2 µg/mL
same,MIC Range,[8]; MRSA-CA (33 isolates),0.12 to 8 µg/mL
same,MIC50,[8]; [13],0.25 µg/mL
same,MIC90,[8]; [13],0.5 µg/mL
same,MIC,"[8]; Staphylococcus aureus, single strain of doxycycline-resistant MRSA-CA",8 µg/mL

# From patent US20130302442A1, “METHODS OF USING (4S,4AS,5AR,12AS)-4-DIMETHYLAMINO-3,10,12,12A-TETRAHYDROXY-7-[(METHOXY(METHYL)AMINO)-METHYL]-1,11-DIOXO-1,4,4A,5,5A,6,11,12A-OCTAHYDRO-NAPHTHACENE-2-CARBOXYLIC ACID AMIDE” (priority 2012, published 2013)
